From paper PMC12064818, “A general assay platform to study protein pharmacology using ligand-dependent structural dynamics” (Nature Communications, 2025)

Target: T1, FLuc-C-HiBiT (Photinus pyralis, UniProt P08659)
T1 construct: firefly luciferase with C-terminal HiBiT tag, E. coli expressed
Assay: biochemical
Conditions: enzyme activity, 10 uM ATP; read-out: IC50 or SDR50 (mM) / FLuc E

T1 sequence (P08659 whole entry, looked up): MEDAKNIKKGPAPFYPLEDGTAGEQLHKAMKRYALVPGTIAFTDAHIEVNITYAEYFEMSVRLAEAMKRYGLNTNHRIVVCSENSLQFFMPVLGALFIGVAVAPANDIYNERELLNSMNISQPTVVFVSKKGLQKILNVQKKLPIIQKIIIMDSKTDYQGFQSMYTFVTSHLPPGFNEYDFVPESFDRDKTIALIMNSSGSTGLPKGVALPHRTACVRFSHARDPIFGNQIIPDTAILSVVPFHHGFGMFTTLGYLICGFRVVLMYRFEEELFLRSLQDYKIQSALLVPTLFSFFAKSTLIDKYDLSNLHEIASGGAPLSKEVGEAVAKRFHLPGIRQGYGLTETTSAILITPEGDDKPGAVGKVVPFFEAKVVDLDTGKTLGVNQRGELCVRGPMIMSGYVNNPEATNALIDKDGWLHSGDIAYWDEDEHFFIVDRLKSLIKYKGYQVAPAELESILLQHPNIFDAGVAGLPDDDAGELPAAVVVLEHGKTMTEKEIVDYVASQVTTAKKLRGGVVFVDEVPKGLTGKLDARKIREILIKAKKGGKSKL

Row | Compound | IC50
1 | O=C(CSc1nccn1Cc1ccco1)Nc1ccc(OC(F)(F)F)cc1 [NCGC00136029-01] | 12.4 µM
2 | NC(=O)CC1CCN(c2ncnc3c2cnn3-c2ccccc2)CC1 [NCGC00610672-01] | > 30 µM
3 | c1ccc(COc2ccc(CN3CCSCC3)cc2)nc1 [NCGC00446150-01] | 12.4 µM
4 | Nc1ccc(C(=O)N2CCCn3nc(C(=O)Nc4ccccc4)cc3C2)cn1 [NCGC00432306-01] | 11.1 µM
5 | COc1ccc(Nc2nc(-c3cccc(OC)c3)no2)cc1 [NCGC00422374-01] | 7.85 µM
6 | O=C(O)c1ccc(-c2noc(-c3ccc(Cl)cc3)n2)cc1 [NCGC00168101-01] | 0.785 µM
7 | COC(=O)c1ccccc1NC(=O)CCc1c(C)nc2cc(-c3ccc(Cl)cc3)nn2c1C [NCGC00110028-01] | 9.89 µM
8 | CCOc1ccc(C(=O)Nc2cc(-c3nc4ccccc4s3)ccc2OC)cc1 [NCGC00103040-01] | > 30 µM
9 | CCC(C)NC(=O)Cn1c(C)ccc(NC(=O)Nc2ccc(C)cc2)c1=O (stereo not drawn) [NCGC00430780-01] | 1.24 µM
10 | Cc1ccc(-c2cccc(COc3cnc4c(ccn4CC(=O)O)c3)c2)c(C)c1 [NCGC00418282-01] | > 30 µM
11 | O[C@H]1C[C@@H](c2cc(N3CCc4c(Cl)cccc4C3)ncn2)C1 [NCGC00424922-01] | 9.89 µM
12 | Cc1ccc(-c2nc(C)c(CCNC(=O)c3cccs3)s2)cc1 [NCGC00135815-01] | 17.6 µM
13 | CNC(=O)c1cccc(-c2cnc(Nc3cccnc3OC)c3c2CCO3)c1 [NCGC00412753-01] | 5.08 µM
14 | CCOc1ncccc1C(=O)OCC(=O)Nc1ccc(-c2nc3ccc(C)cc3s2)cc1 [MLS000418033-02] | 16 µM
15 | Cc1c(NC(=O)c2ccc(I)o2)cccc1-c1nc2ccccc2s1 [NCGC00595010-01] | 7 µM
16 | Fc1ccc2[nH]c([C@H]3CCN(Cc4ccccc4F)C3)nc2c1 [NCGC00391187-01] | 14.3 µM
17 | COc1cccc2cc(C(=O)Nc3ccc(CC(=O)O)cc3)c(=O)oc12 [NCGC00102789-01] | 3.13 µM
18 | Cc1ccc(-c2ncc(NC(=O)c3ccccc3F)cn2)cc1 [NCGC00432887-01] | 1.97 µM
19 | CCOc1ccc(NC(=O)Nc2cccc(C(=O)O)c2)cc1 [NCGC00689880-01] | 0.00881 µM
20 | Cc1nn(-c2ccc(C(C)C)cc2)c(C)c1[C@@H]1C=C[C@@H](NC(=O)COCC(=O)O)C1 [NCGC00401626-01] | 20.2 µM
21 | Nc1ncnc2c1ncn2[C@@H]1O[C@H](CO)[C@@H](O)[C@@H]1O [NCGC00178869-10] | > 30 µM

Row | Compound | IC50
22 | Cc1c(-c2ccc(F)cc2)[nH]c2ccc(CNC(=O)CN3CCOC3=O)cc12 [NCGC00442659-01] | 11.1 µM
23 | Cc1cc(-c2cc3c(cn2)CN(Cc2cccs2)CCN3)ccn1 [NCGC00411196-01] | 11.4 µM
24 | O=C1Cc2c(-c3cccc4ccccc34)n[nH]c2CN1CCOc1ccccc1 [NCGC00409142-01] | 18 µM
25 | Cc1ccccc1-c1noc(-c2ccc(NC(C)c3cnn(C)c3)nc2)n1 (stereo not drawn) [NCGC00428942-01] | 0.989 µM
26 | Fc1ccc(-n2ncc3c(N4CCCCC4)nc(NN4CCOCC4)nc32)cc1 [NCGC00652353-01] | > 30 µM
27 | COc1ccc(-c2nc3ccccc3s2)cc1NC(=O)c1ccc(F)cc1 [NCGC00103032-01] | > 30 µM
28 | O=C(NCCc1ccccc1F)c1nc2sccn2c1Br [NCGC00479849-01] | 7 µM
29 | CCCNc1cc(N2CCC(CCC(=O)Nc3ccc4c(c3)OCCO4)CC2)ncn1 [NCGC00470245-01] | 9.89 µM
30 | CCCCC(=O)Nc1cc(-c2nc3ccccc3s2)ccc1C [NCGC00596082-01] | > 30 µM
31 | O=C(CSc1nnc2ccccn12)Nc1cccc(-c2nc3ccccc3s2)c1 [NCGC00688053-01] | > 30 µM
32 | CSc1ccc(C(=O)Nc2ccc(-c3nc4ccccc4s3)c(O)c2)cc1 [NCGC00134695-01] | > 30 µM
33 | Cc1ccccc1CN1CC[C@H](c2nc3ccccc3s2)C1 [NCGC00391192-01] | 18 µM
34 | COc1ccc(NC(=O)N2CCc3c(C(=O)Nc4ccc5c(c4)OCO5)cccc32)cc1 [NCGC00430172-01] | 0.881 µM
35 | O=C(Nc1ccccc1)c1nc2c(o1)CCN(Cc1cccnc1)CC2 [NCGC00413263-01] | 5.7 µM
36 | COc1cccc(-c2noc(Nc3ccc(OC)c(OC)c3)n2)c1 [NCGC00422366-01] | 3.94 µM
37 | CN1C[C@@H](N[S+](=O)([O-])c2ccc(C#N)cc2)C[C@H]1c1nc(-c2ccc(Cl)cc2)no1 [NCGC00400957-01] | 11.1 µM
38 | CCOc1ccc2nc(N(Cc3cccnc3)C(=O)c3cccs3)sc2c1 [NCGC00136637-01] | > 30 µM
39 | Cc1c(C(=O)Nc2cccc(-c3nc4ccccc4s3)c2)oc2ccccc12 [NCGC00119181-01] | > 30 µM
40 | CCSc1ccccc1C(=O)Nc1ccc(-c2nc3ccccc3s2)c(O)c1 [NCGC00134162-01] | > 30 µM
41 | COc1cc(NC(=O)c2ccc(-c3ncn[nH]3)cc2)ccc1NC(=O)C(C)(C)C [NCGC00432557-01] | 12.4 µM
42 | C[C@@H]1C(=O)O[C@H]2[C@H]1CC[C@@]1(C)Cc3sc(NC(=O)c4ccncc4)nc3[C@@H](C)[C@H]21 [NCGC00401418-01] | 0.57 µM
